Results taken from ChEMBL document CHEMBL1806440, “N-β-glycosyl sulfamides are selective inhibitors of the cancer associated carbonic anhydrase isoforms IX and XII” (Bioorg Med Chem Lett, 2011).

target: Carbonic anhydrase 9 (Homo sapiens, UniProt Q16790)

Compared with C[C@H]1O[C@@H](NS(N)(=O)=O)[C@@H](O)[C@@H](O)[C@@H]1O, CC(=O)OC[C@H]1O[C@@H](NS(N)(=O)=O)[C@H](OC(C)=O)[C@@H](OC(C)=O)[C@H]1OC(C)=O is 440-fold lower in Ki: 3140 nM for the first, 7.2 nM for the second. The second binds more tightly here.

Going from CC(=O)OC[C@H]1O[C@@H](NS(N)(=O)=O)[C@H](OC(C)=O)[C@@H](OC(C)=O)[C@@H]1OC(C)=O to CC(=O)OC[C@H]1O[C@@H](NS(N)(=O)=O)[C@@H](OC(C)=O)[C@@H](OC(C)=O)[C@@H]1OC(C)=O, the Ki falls from 7.7 nM to 5 nM (1.5-fold). The second binds more tightly here.

CC(=O)OC[C@H]1O[C@@H](NS(N)(=O)=O)C[C@@H](OC(C)=O)[C@H]1OC(C)=O and CC(=O)OC[C@H]1O[C@@H](NS(N)(=O)=O)C[C@@H](OC(C)=O)[C@@H]1OC(C)=O are within 1.5-fold of each other in Ki: 16 nM for the first, 13 nM for the second.
